Data taken from patent US10934255B2, “Nrf and HIF activators/HDAC inhibitors and therapeutic methods using the same” (THE BOARD OF TRUSTEES OF THE UNIVERSITY OF ILLINOIS, priority 2017, dated 2021).

Experiments:
primary cortical neurons = test: HCA-induced neurodegeneration assay (oxidative stress, glutathione depletion); format: cell-based; settings: at 0.5 μM; protection declined at higher concentrations due to neurotoxicity
Procedure: FIG. 1 contains bar graphs of % cell survival vs. concentration for HCA evaluation of II-ING-66 using the glutathione depletion neurotoxicity model of oxidative stress. Immature primary cortical neurons were treated with the test compound alone or in the presence of HCA. Cell viability was assessed at 24 h using the MTT assay. Bar plot represents percentage control mean±SEM of viable cells (n=3). *p<0.05 and **p<0.01 compared to control (DMSO) (n=3/group). HCA oxidative stress assay.
Compound II-ING-66 was examined in a model of oxidative stress induced by homocysteic acid (HCA), where neurons were treated with the test compound alone or in the presence of HCA.
It has been shown that HDAC6 inhibition protects against neuronal degeneration and stimulates neurite outgrowth in dorsal root ganglion neurons, therefore indicating methods of treating CNS diseases. Accordingly, present compounds were examined in a model of oxidative stress induced by homocysteic acid (HCA). This model leads to depletion of glutathione, the major intracellular antioxidant. HDAC6 inhibition rescues neuronal death in this model, possibly by causing hyperacetylation of peroxiredoxins. […] (A. P. Kozikowski et al., J. Med. Chem. 2007, 50, 3054-61.) […]

[1] = system: prostate cancer (LNCaP) cells; settings: via peroxiredoxin acetylation, published results; cited from earlier work
α-tubulin acetylation = settings: published results; cited from earlier work

Structure (SMILES)	Neuroprotection in HCA-induced neurodegeneration (primary cortical neurons)	Concentration protecting from hydrogen peroxide-induced death [1]	Concentration inducing α-tubulin acetylation (α-tubulin acetylation)
CC(/C=C/C(=O)NO)=C\[C@@H](C)C(=O)c1ccc(N(C)C)cc1 [TSA, Trichostatin A]	moderately neuroprotective	–	–
O=C(CCCCCCC(=O)Nc1ccc([C@H]2O[C@@H](CSc3nc(-c4ccccc4)c(-c4ccccc4)o3)C[C@@H](c3ccc(CO)cc3)O2)cc1)NO [Tubacin]	–	8 µM	5 µM
